The series can be described thus: molar enthalpy of vaporization or sublimation. Particulars: Liquid, TGA.

The structures appear in SMILES notation. Numbers after ± are expanded uncertainties.

In the case of `CCn1cc[n+](C)c1.[Cl-]` [1-ethyl-3-methylimidazolium chloride], the molar enthalpy (432.1 K) came out at 30.3 ± 0.717 kcal/mol.

`CCCCCCn1cc[n+](C)c1.[Cl-]` [1-hexyl-3-methylimidazolium chloride]: under “432.4 K”, the molar enthalpy is 34.4 ± 0.717 kcal/mol.

(Values after the NIST ThermoML archive (doi:10.1016/j.tca.2013.04.003).)
